{"source": "ChEMBL document CHEMBL5500338", "about": "“Design, synthesis, and biological evaluation of piperazine derivatives as pan-PPARs agonists for the treatment of liver fibrosis” (Eur J Med Chem, 2024)", "assay_type_in_all_cases": "cell-based", "key": {"[1]": {"biological_target": "T1, Peroxisome proliferator-activated receptor delta (Homo sapiens, UniProt Q03181)", "T1 sequence (Q03181 whole entry)": "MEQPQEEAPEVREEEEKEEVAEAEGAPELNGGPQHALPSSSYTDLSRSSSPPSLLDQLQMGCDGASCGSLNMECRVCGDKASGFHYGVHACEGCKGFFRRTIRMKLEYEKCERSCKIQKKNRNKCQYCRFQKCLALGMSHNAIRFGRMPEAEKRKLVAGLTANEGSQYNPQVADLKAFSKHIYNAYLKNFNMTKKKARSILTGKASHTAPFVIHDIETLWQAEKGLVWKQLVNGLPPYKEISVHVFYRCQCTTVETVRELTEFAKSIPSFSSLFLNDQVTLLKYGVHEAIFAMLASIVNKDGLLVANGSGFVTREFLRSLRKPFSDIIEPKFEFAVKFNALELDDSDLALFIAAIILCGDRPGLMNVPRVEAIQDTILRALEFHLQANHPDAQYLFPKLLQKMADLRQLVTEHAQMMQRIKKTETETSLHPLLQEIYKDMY", "experiment": "Agonist activity at human PPARdelta transfected in African green monkey COS-7 cells co-transfected with pGL4.35 and pBIND reporter gene plasmid assessed as receptor transactivation incubated for 16 hrs by luciferase reporter gene assay"}, "[2]": {"biological_target": "T2, Peroxisome proliferator-activated receptor gamma (Homo sapiens, UniProt P37231)", "T2 sequence (P37231 whole entry)": "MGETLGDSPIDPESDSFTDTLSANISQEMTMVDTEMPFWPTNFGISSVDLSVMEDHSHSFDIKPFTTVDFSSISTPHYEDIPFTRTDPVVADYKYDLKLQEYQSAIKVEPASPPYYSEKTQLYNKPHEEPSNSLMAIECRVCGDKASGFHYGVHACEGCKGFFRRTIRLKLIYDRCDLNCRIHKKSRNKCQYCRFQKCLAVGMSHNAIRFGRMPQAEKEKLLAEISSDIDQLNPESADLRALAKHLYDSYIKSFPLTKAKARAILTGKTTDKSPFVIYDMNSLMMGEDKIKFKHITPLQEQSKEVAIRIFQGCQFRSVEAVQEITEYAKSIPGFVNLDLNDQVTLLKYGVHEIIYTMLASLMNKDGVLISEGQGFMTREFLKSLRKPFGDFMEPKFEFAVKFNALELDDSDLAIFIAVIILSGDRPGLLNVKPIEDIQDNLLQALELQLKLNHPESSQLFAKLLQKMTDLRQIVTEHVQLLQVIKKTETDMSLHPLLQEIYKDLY", "experiment": "Agonist activity at human PPARgamma transfected in African green monkey COS-7 cells co-transfected with pGL4.35 and pBIND reporter gene plasmid assessed as receptor transactivation incubated for 16 hrs by luciferase reporter gene assay"}, "[3]": {"biological_target": "T3, Peroxisome proliferator-activated receptor alpha (Homo sapiens, UniProt Q07869)", "T3 sequence (Q07869 whole entry)": "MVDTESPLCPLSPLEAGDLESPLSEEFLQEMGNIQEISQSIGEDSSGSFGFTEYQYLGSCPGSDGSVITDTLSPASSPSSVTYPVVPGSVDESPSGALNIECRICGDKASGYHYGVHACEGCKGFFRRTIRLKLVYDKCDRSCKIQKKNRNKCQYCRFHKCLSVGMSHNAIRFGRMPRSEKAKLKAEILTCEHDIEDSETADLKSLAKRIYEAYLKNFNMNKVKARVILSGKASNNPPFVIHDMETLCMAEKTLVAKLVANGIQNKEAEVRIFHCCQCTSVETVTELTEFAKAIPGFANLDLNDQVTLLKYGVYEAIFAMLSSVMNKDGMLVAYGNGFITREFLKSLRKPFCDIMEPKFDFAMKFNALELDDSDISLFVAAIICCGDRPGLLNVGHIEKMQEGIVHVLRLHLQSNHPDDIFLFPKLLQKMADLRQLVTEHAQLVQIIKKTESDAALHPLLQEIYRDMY", "experiment": "Agonist activity at human PPARalpha transfected in African green monkey COS-7 cells co-transfected with pGL4.35 and pBIND reporter gene plasmid assessed as receptor transactivation incubated for 16 hrs by luciferase reporter gene assay"}}, "data": [{"smiles": "Cc1cc(CN2CCN(Cc3ccc(C(F)(F)F)cn3)CC2)cc(C)c1OC(C)(C)C(=O)O", "values": [{"measurement": "EC50", "setting": "[1]", "value": 2, "unit": "µM"}, {"measurement": "EC50", "setting": "[2]", "value": 8.6, "unit": "µM"}]}, {"smiles": "Cc1cc(CN2CCN(c3ccc(C(F)(F)F)nc3)CC2)cc(C)c1OC(C)(C)C(=O)O", "values": [{"measurement": "EC50", "setting": "[2]", "value": "> 10", "unit": "µM"}]}, {"smiles": "Cc1ccc(N2CCN(Cc3cc(C)c(OC(C)(C)C(=O)O)c(C)c3)CC2)nc1", "values": [{"measurement": "EC50", "setting": "[1]", "value": "> 10", "unit": "µM"}]}, {"smiles": "Cc1cc(CN2CCN(c3ccc(F)cn3)CC2)cc(C)c1OC(C)(C)C(=O)O", "values": [{"measurement": "EC50", "setting": "[1]", "value": "> 10", "unit": "µM"}, {"measurement": "EC50", "setting": "[2]", "value": 7.2, "unit": "µM"}]}, {"smiles": "CC(C)(Oc1ccc(CCNC(=O)c2ccc(Cl)cc2)cc1)C(=O)O", "note": "[BEZAFIBRATE]", "values": [{"measurement": "EC50", "setting": "[1]", "value": 49.7, "unit": "µM"}, {"measurement": "EC50", "setting": "[2]", "value": 13.2, "unit": "µM"}]}, {"smiles": "Cc1cc(CN2CCN(c3ccc(C(F)(F)F)cc3)CC2)ccc1OC(C)(C)C(=O)O", "values": [{"measurement": "EC50", "setting": "[2]", "value": "> 10", "unit": "µM"}]}, {"smiles": "Cc1cc(CN2CCN(c3ncccc3C(F)(F)F)CC2)cc(C)c1OC(C)(C)C(=O)O", "values": [{"measurement": "EC50", "setting": "[1]", "value": "> 10", "unit": "µM"}]}, {"smiles": "Cc1cc(CN2CCN(Cc3ccc(C(F)(F)F)nc3)CC2)cc(C)c1OC(C)(C)C(=O)O", "values": [{"measurement": "EC50", "setting": "[2]", "value": "> 10", "unit": "µM"}]}, {"smiles": "Cc1cc(CN2CCN(c3cnc(C(F)(F)F)nc3)CC2)cc(C)c1OC(C)(C)C(=O)O", "values": [{"measurement": "EC50", "setting": "[1]", "value": 3.2, "unit": "µM"}, {"measurement": "EC50", "setting": "[2]", "value": "> 10", "unit": "µM"}]}, {"smiles": "Cc1c(CN2CCN(c3ccc(C(F)(F)F)cc3)CC2)ccc(OC(C)(C)C(=O)O)c1C", "values": [{"measurement": "EC50", "setting": "[2]", "value": "> 10", "unit": "µM"}]}, {"smiles": "Cc1cc(CN2CCN(c3ccc(C(F)(F)F)cc3)CC2)cc(C)c1OC(C)(C)C(=O)O", "values": [{"measurement": "EC50", "setting": "[1]", "value": 0.8, "unit": "µM"}, {"measurement": "EC50", "setting": "[2]", "value": "> 10", "unit": "µM"}]}, {"smiles": "CC(C)(Oc1ccc(CN2CCN(c3ccc(C(F)(F)F)cc3)CC2)cc1)C(=O)O", "values": [{"measurement": "EC50", "setting": "[1]", "value": 4.4, "unit": "µM"}, {"measurement": "EC50", "setting": "[2]", "value": "> 10", "unit": "µM"}]}, {"smiles": "Cc1cc(CN2CCN(c3ccccn3)CC2)cc(C)c1OC(C)(C)C(=O)O", "values": [{"measurement": "EC50", "setting": "[1]", "value": "> 10", "unit": "µM"}]}, {"smiles": "Cc1cc(OC(C)(C)C(=O)O)ccc1CN1CCN(c2ccc(C(F)(F)F)cc2)CC1", "values": [{"measurement": "EC50", "setting": "[3]", "value": "> 10", "unit": "µM"}]}, {"smiles": "Cc1cc(CN2CCN(c3ncc(C(F)(F)F)cn3)CC2)cc(C)c1OC(C)(C)C(=O)O", "values": [{"measurement": "EC50", "setting": "[1]", "value": 0.8, "unit": "µM"}]}, {"smiles": "O=C(O)CCCc1cc2cc(Cl)ccc2n1S(=O)(=O)c1ccc2ncsc2c1", "note": "[LANIFIBRANOR]", "values": [{"measurement": "EC50", "setting": "[1]", "value": 2.9, "unit": "µM"}, {"measurement": "EC50", "setting": "[3]", "value": 3.2, "unit": "µM"}, {"measurement": "EC50", "setting": "[2]", "value": 0.6, "unit": "µM"}]}]}
